Assay [1] concerns Melanophore. In words: Effective concentration required to produce 50% of the maximal pigment aggregation in Xenopus laevis dermal melanophore cell line; No agonist effect detected at 100 uM. The class given is functional, cell-based, frog.
Assay [2] concerns Melanophore. The experiment in a line: Inhibitory concentration against melatonin-induced pigment aggregation by 50% in Xenopus laevis dermal melanophore cell line. The format is functional, cell-based, frog.
Another assay has as its target Melatonin receptor (Gallus gallus, UniProt P49288+P51050+P49285). In words: Binding affinity towards melatonin receptor, determined in chicken brain membranes using [2-125I]melatonin. The format is cell membranes, Membrane.
Assay [3] deals with Melanophore. In words: Effective concentration required to produce 50% of the maximal pigment aggregation in Xenopus laevis dermal melanophore cell line. The format is functional, cell-based, frog. The note with it: Xenopus laevis, Melanophore.
For assay [4], the system named is Melanophore. In words: Inhibitory concentration against melatonin-induced pigment aggregation by 50% in Xenopus laevis dermal melanophore cell line; Antagonism detected at 100 uM but IC50 not calculated. The format is functional, cell-based, frog.

Bounds are passed on as bounds.

For the molecule `CCCCC(=O)NCC1CCCCc2c1c1ccccc1n2C` (stereo not drawn), the EC50 entry with Melanophore [1] was “Not Active”. In the assay on Melanophore [2], it took 42 µM to reach half-maximal inhibition (IC50). In addition, at Melatonin receptor, the Ki was found to be 8.3 µM.
For the molecule `CCCCC(=O)NCC1CCCCc2c1c1cc(OC)ccc1n2C` (stereo not drawn), the EC50 result in the assay with Melanophore [1] is given as “Not Active”. Further, the midpoint of inhibition in the assay with Melanophore [2], the IC50, lay at 39 µM. For the same molecule, the Ki at Melatonin receptor was 0.471 µM.
In the same order, the values of `CCC(=O)NCC1CCCCc2c1c1cc(OC)ccc1n2C` (single isomer, unassigned; (+)) are “Not Active”, “Not Active” and 0.2015 µM.
On to `CCC(=O)NCC1CCCCc2c1c1cc(OC)ccc1n2C` (stereo in doubt; 11i), for which the EC50 with Melanophore [3] was determined as 0.091 µM. For the same molecule, the Ki at Melatonin receptor came out at 0.007 µM. Moreover, the IC50 entry in the assay with Melanophore [4] is “Antagonist”.
On to `CCC(Br)C(=O)NC1CCc2[nH]c3ccccc3c2C1` (stereo not drawn), for which, in the assay with Melanophore [1], the half-maximal effective concentration (EC50) entry is reported as “Not Active”. Further, the half-inhibitory concentration (IC50) with Melanophore [2] stood at 32 µM. This molecule also yielded a Ki on Melatonin receptor of over 10 µM.
Regarding `Cn1c2c(c3ccccc31)C(CNC(=O)C(F)(F)F)CCC2` (stereo not drawn), in the assay with Melanophore [1], the 50% effective concentration (EC50) entry is “Not Active”. The IC50 in the assay on Melanophore [2] came out at 35 µM. This molecule displayed a Ki on Melatonin receptor of over 10 µM.
For the molecule `Cn1c2c(c3ccccc31)C(CNC(=O)C1CC1)CCC2` (stereo not drawn), the EC50 entry in the assay with Melanophore [1] is on record as “Not Active”. Besides, inhibition with Melanophore [2] was half-maximal at 15 µM (IC50). In addition, on Melatonin receptor, the Ki was found to be 4.46 µM.
On to `CCCCC(=O)NCC1CCCc2c1c1ccccc1n2C` (stereo not drawn), for which the EC50 entry in the assay with Melanophore [1] was “Not Active”. In the assay with Melanophore [2], this molecule registered an IC50 of 17 µM. Moreover, the inhibition constant Ki at Melatonin receptor was over 10 µM.
On to `CC(=O)NCC1CCCCc2c1c1ccccc1n2C` (stereo not drawn), for which the EC50 entry in the assay with Melanophore [1] is “Not Active”. In addition, the IC50 with Melanophore [2] worked out at 54 µM. The molecule further came in with a Ki at Melatonin receptor of 0.424 µM.
Molecule `CCCC(=O)NCC1CCc2c1c1ccccc1n2C` (stereo not drawn) yielded an EC50 with Melanophore [3] of 2.63 µM. Besides, the Ki on Melatonin receptor came out at 0.239 µM. Also, the IC50 result in the assay with Melanophore [4] is listed as “Antagonist”.
On to `CC(=O)NCCc1c(Cc2ccccc2)[nH]c2ccccc12` [LUZINDOLE], for which, in the assay with Melanophore [1], the EC50 result was “Not Active”. In the assay with Melanophore [2], the IC50 was found to be 2.1 µM. For the same molecule, the Ki on Melatonin receptor turned out to be 1.606 µM.
For `CCC(=O)NCC1CCCCc2c1c1ccccc1n2C` (stereo not drawn), the EC50 entry in the assay on Melanophore [1] is listed as “Not Active”. The molecule further displayed an inhibitory constant (Ki) on Melatonin receptor of 0.129 µM. Besides, in the assay with Melanophore [4], the concentration for half-maximal inhibition (IC50) entry is “Antagonist”.
Consider `Cn1c2c(c3cc(Cl)ccc31)C(CNC(=O)C1CCC1)CCC2` (stereo not drawn), for which the EC50 result with Melanophore [1] is on record as “Not Active”. For the same molecule, the IC50 in the assay with Melanophore [2] came to 14 µM. The Ki on Melatonin receptor was found to be 0.1872 µM.
In the assay on Melanophore [3], `CCC(=O)NCC1CCc2c1c1ccccc1n2C` (stereo not drawn) came in with an EC50 of 4.04 µM. The same molecule showed a Ki at Melatonin receptor of 0.272 µM. Also, in the assay on Melanophore [4], the IC50 entry is “Antagonist”.
`CCCC(=O)NCC1CCCCc2c1c1cc(OC)ccc1n2C` (stereo not drawn): the EC50 in the assay with Melanophore [3] came out at 0.14 µM. On Melatonin receptor, the inhibition constant Ki turned out to be 0.0103 µM. Further, the IC50 entry in the assay with Melanophore [4] is reported as “Antagonist”.
For the molecule `COc1ccc2c(c1)c1c(n2C)CCC1CNC(=O)C1CC1` (stereo not drawn), in the assay on Melanophore [1], the EC50 entry is “Not Active”. The same molecule had an IC50 in the assay on Melanophore [2] of 11 µM. At Melatonin receptor, the Ki was determined as 0.459 µM.
In the same order, the values of `Cn1c2c(c3ccccc31)C(CNC(=O)C1CCC1)CC2` (stereo not drawn) are “Not Active”, 50 µM and 5.7 µM.
As to `Cn1c2c(c3ccccc31)C(CNC(=O)C(F)(F)F)CCCC2` (stereo not drawn), the EC50 entry with Melanophore [1] was “Not Active”. Besides, the IC50 result with Melanophore [2] is recorded as “Not Active”. For the same molecule, at Melatonin receptor, the Ki is over 10 µM.
For the molecule `CC(=O)NCC1CCCc2c1c1ccccc1n2C` (single isomer, unassigned; (+)), the EC50 entry in the assay on Melanophore [1] is reported as “Not Active”. For the same molecule, in the assay on Melanophore [2], it took 6.4 µM to reach half-maximal inhibition (IC50). Further, the Ki at Melatonin receptor was 0.708 µM.
In the same order, the values of `CCCCC(=O)NCC1CCc2c1c1ccccc1n2C` (stereo not drawn) are “Not Active”, 46 µM and over 10 µM.
With `O=C(NCCc1c(-c2ccccc2)[nH]c2ccccc12)C1CCC1`, the EC50 entry with Melanophore [1] is listed as “Not Active”. The same molecule showed an IC50 in the assay with Melanophore [2] of 3.4 µM. Besides, the Ki at Melatonin receptor stood at 0.565 µM.
With `Cn1c2c(c3ccccc31)C(CNC(=O)C(F)(F)F)CC2` (stereo not drawn), in the assay on Melanophore [1], the EC50 entry is recorded as “Not Active”. Further, the half-inhibitory concentration (IC50) result in the assay on Melanophore [2] is “Not Active”. Besides, the Ki at Melatonin receptor is over 10 µM.
Regarding `Cn1c2c(c3ccccc31)C(CNC(=O)C1CC1)CCCC2` (stereo not drawn), the EC50 result in the assay with Melanophore [1] is on record as “Not Active”. Besides, inhibition in the assay on Melanophore [2] was half-maximal at 56 µM (IC50). At Melatonin receptor, this molecule displayed a Ki of 1.22 µM.
`Cn1c2c(c3ccccc31)C(CNC(=O)C1CCC1)CCCC2` (stereo not drawn): the EC50 entry in the assay on Melanophore [1] is given as “Not Active”. In the assay with Melanophore [2], this molecule returned a concentration for half-maximal inhibition (IC50) of 44 µM. This molecule also returned a Ki at Melatonin receptor of 1.69 µM.
In the case of `COc1ccc2c(c1)c1c(n2C)CCCCC1CNC(=O)C1CCC1` (stereo not drawn), in the assay on Melanophore [1], the EC50 entry was “Not Active”. Besides, half-maximal inhibition in the assay with Melanophore [2] (IC50) required 18 µM. At Melatonin receptor, this molecule had a Ki of 0.1448 µM.
Turning to `Cn1c2c(c3ccccc31)C(CNC(=O)C1CC1)CC2` (stereo not drawn), in the assay with Melanophore [1], the EC50 result is “Not Active”. For the same molecule, the IC50 in the assay with Melanophore [2] stood at 59 µM. This molecule came in with a Ki on Melatonin receptor of 5.1 µM.

Values taken from ChEMBL document CHEMBL1131339 (J Med Chem, 1998).
